Assay results taken from patent US20130309184A1, “1,3-DIOXAN-5-ONE COMPOUNDS” (MERCK PATENT GMBH, priority 2011, published 2013).

Experiments:
Type in all cases: physicochemical
[1] = Absorption strength (absorption spectrum in ethanol); design: λmax: unit not given here; conditions: for λmax: absorption maximum, dilute solution in ethanol; for E1% value: extinction at the absorption maximum extrapolated to 1 g/100 ml; for E1% value / Half-value width: ethanol; for Half-value width: half-value width of the absorption band
Protocol: The measure used for the absorption strength is the so-called E1% value, and the half-value width of the absorption band in relation to the absorption maximum λmax indicated. The E1% value indicates the extinction at the absorption maximum extrapolated to a concentration of 1 g/100 ml. To this end, an absorption spectrum of the substance in ethanol is recorded in dilute solution. The values are compared with the reference spectra of curcumin and beta-carotene.

[2] = Solubility determination in phenethyl benzoate (X-Tend 226)
Protocol: The solubility determination was carried out in phenethyl benzoate (X-Tend 226): […]

[3] = Thermal stability by thermogravimetry; conditions: for Temperature at which 98% of the weight were still present: TGA, RT to 800° C., heating rate 10K/min; for thermal stabilities: verbal assessment, high-temperature processing possible without decomposition
Protocol: The thermal stability is determined with the aid of the thermogravimetry method (instrument TGA Q5000 V3.10 Build 258, temperature range RT to 800° C., heating rate 10K/min).

[4] = Fluorescence measurements; conditions: in ethanol; measurement concentration 0.00436 mg/ml (Example 4), 0.00048 mg/ml (Example 8), 0.00045 mg/ml (Example 17)
Protocol: The substance concentrations in ethanol indicated in the table are measured using an Aminco Bowman 2 fluorescence spectrometer (cell thickness 1 cm; excitation 220-600 nm; emission 220-800 nm; spectral gap width (excitation) 4 nm, (emission) 8 nm; recording speed 10 nm/min; step width (excitation) 5 nm, (emission) 4 nm.

Structure (SMILES) | λmax [1] | E1% value [1] | Half-value width [1] [nm] | Solubility in X-Tend 226 [2] [%] | Temperature at which 98% of the weight were still present [3] [° ° C.] | thermal stabilities [3] | Emission [4] [nm] | Excitation [4] [nm]
CCOC1(C)O/C(=C\c2ccc(OC)c(OC)c2)C(=O)/C(=C/c2ccc(OC)c(OC)c2)O1 (stereo not shown) [Example 2] | 412 | 617 | 85 | 1.2 | – | – | – | –
COc1cc(/C=C/C(=O)CC(=O)/C=C/c2ccc(O)c(OC)c2)ccc1O [Curcumin, curcumin, reference compound] | 426 | 1507 | 78 | 0.4 | 223 | – | – | –
CC1=C(/C=C/C(C)=C/C=C/C(C)=C/C=C/C=C(C)/C=C/C=C(C)/C=C/C2=C(C)CCCC2(C)C)C(C)(C)CCC1 [Beta-carotene, beta-carotene, reference compound] | 453 | 408 | 88 | 0.2 | 84 | – | – | –
CCCCCCCCOc1ccc(/C=C2\OC(C)(OCC)O/C(=C\c3ccc(OCCCCCCCC)cc3)C2=O)cc1 (stereo not shown) [Example 6, (4Z,6Z)-4,6-bis[(4-octyloxyphenyl)methylene]-2-ethoxy-2-methyl-1,3-dioxan-5-one] | 404 | 557 | 87 | 1.0 | – | – | – | –
CCOC1(C)O/C(=C\c2cc(OC)c(OC)c(OC)c2)C(=O)/C(=C/c2cc(OC)c(OC)c(OC)c2)O1 (stereo not shown) [Example 5] | 394 | 647 | 85 | 1.1 | – | – | – | –
CCOC1(C)O/C(=C\c2cc(OC)c(OC)cc2OC)C(=O)/C(=C/c2cc(OC)c(OC)cc2OC)O1 (stereo not shown) [Example 4] | 444 | 304 | 92 | <0.1 | 256 | excellent | 596 | 440
CCOC1(C)O/C(=C\c2ccc(OC)cc2)C(=O)/C(=C/c2ccc(OC)cc2)O1 (stereo not shown) [Example 1, (4Z,6Z)-2-ethoxy-4,6-bis[(4-methoxyphenyl)methylene]-2-methyl-1,3-dioxan-5-one] | 402 | 873 | 84 | 2.8 | – | – | – | –
CCOC1(C)O/C(=C\c2ccc(OC)cc2OC)C(=O)/C(=C/c2ccc(OC)cc2OC)O1 (stereo not shown) [Example 3] | 419 | 688 | 93 | 1.0 | – | – | – | –

Further lines, results first:

λmax [1] | E1% value [1] | Half-value width [1] [nm] | Solubility in X-Tend 226 [2] [%] | Temperature at which 98% of the weight were still present [3] [° ° C.] | thermal stabilities [3] | Emission [4] [nm] | Excitation [4] [nm] | Structure (SMILES)
486 | 953 | 105 | 2.8 | 274 | excellent | 640 | 485 | CCCCN(CCCC)c1ccc(/C=C2\OC(C)(OCC)O/C(=C\c3ccc(N(CCCC)CCCC)cc3)C2=O)cc1 (stereo not shown) [Example 8, (4Z,6Z)-4,6-bis[[(4-dibutylamino)phenyl]methylene]-2-ethoxy-2-methyl-1,3-dioxan-5-one]
389 | 675 | 84 | 2.2 | – | – | – | – | CCOC1(C)O/C(=C\c2ccc(Oc3ccccc3)cc2)C(=O)/C(=C/c2ccc(Oc3ccccc3)cc2)O1 (stereo not shown) [Example 7, (4Z,6Z)-4,6-bis[(4-phenoxyyphenyl)methylene]-2-ethoxy-2-methyl-1,3-dioxan-5-one]
– | – | – | – | – | – | 632 | 490 | CCOC1(C)O/C(=C\c2ccc(N(C)C)cc2OC)C(=O)/C(=C/c2ccc(N(C)C)cc2OC)O1 (stereo not shown) [Example 17, 2-ethoxy-2,6-bis-[1-(4-dimethylamino-2-methoxyphenyl)meth-(Z)ylidene]-2-methyl-1,3-dioxan-5-one]
